The text below walks through data of US20250032506A1, “GLUCOCORTICOID RECEPTOR BLOCKADE WITH MIFEPRISTONE TO SENSITIZE PANCREATIC CANCER TO IMMUNOTHERAPY” (BOARD OF REGENTS, THE UNIVERSITY OF TEXAS SYSTEM, priority 2021, published 2025).

The structures appear in SMILES notation.

Assay [1] relates to orthotopic HY24409 tumors. In words: Flow cytometric analysis and multiplex immunofluorescent staining of tumors or spleens from mice treated with mifepristone and dual ICB. The class given is in vivo, mouse. The procedure:
Cancer Discov 10, 1374-1387 (2020). […] CyTOF data were analyzed by FlowJo and Cytobank.
Immunity 54, 1561-1577 e1567 (2021).

For assay [2], the system named is orthotopic HY24409 tumors. In words: Immune checkpoint blockade experiments in male C57BL/6 mice bearing orthotopic HY24409 tumors. The class given is in vivo, mouse. The conditions noted are these: compared with the vehicle+IgG control. As to the method: Orthotopic pancreatic tumor size was determined by MRI. Subcutaneous tumor size was measured with a caliper. […] Animal body weight was measured throughout the study.

The test system of the next assay is HY24409 cells. Put plainly: Chemokine array of conditioned medium. Format: cell-based, mouse. The conditions noted are these: mifepristone 20 μM, 48 hours. As to the method:
Chemokine array was performed with conditioned medium from HY24409 cells treated with vehicle or mifepristone (20 μM, 48 hours) using the Proteome Profiler Mouse Chemokine Array Kit (R&D system, ARY020) following the manufacturer's instructions.

[3] abbreviates: relative to the control group, either with or without co-treatment with dual ICB.

For `CC#C[C@]1(O)CC[C@H]2[C@@H]3CCC4=CC(=O)CCC4=C3[C@@H](c3ccc(N(C)C)cc3)C[C@@]21C` [mifepristone], the “tumor infiltration by CD8+ T cells and granzyme B+ CTLs” value in assay [1] (flow cytometric analysis and multiplex immunofluorescent staining, HY24409 tumors) is “increase”. Also, in assay [1] (setting [3]), the “cell-surface MHC-I (H-2K^b) and B2M in tumor cells” value was “increase”; the “cell-surface PD-L1 in tumor cells” value is reported as “decrease”. In assay [2], the survival entry is “did not lead to a significant improvement in survival”. Moreover, the “chemokines secreted by HY24409 cells” value in the assay with HY24409 cells is “no chemokines that showed a change after mifepristone treatment were found”.
